Key:
[1] = target: T1, human recombinant adrenergic α2B receptor (Homo sapiens, UniProt P18089); assay: Radioligand binding, adrenergic α2B ([3H]Rauwolscine); details: for Percentage inhibition of ligand binding, Adrenergic α2B (0.03 μM): repeat datapoints each shown
T1 construct: expressed in transfected cells; host or cells: CHO-K1
T1 sequence (P18089 1-450): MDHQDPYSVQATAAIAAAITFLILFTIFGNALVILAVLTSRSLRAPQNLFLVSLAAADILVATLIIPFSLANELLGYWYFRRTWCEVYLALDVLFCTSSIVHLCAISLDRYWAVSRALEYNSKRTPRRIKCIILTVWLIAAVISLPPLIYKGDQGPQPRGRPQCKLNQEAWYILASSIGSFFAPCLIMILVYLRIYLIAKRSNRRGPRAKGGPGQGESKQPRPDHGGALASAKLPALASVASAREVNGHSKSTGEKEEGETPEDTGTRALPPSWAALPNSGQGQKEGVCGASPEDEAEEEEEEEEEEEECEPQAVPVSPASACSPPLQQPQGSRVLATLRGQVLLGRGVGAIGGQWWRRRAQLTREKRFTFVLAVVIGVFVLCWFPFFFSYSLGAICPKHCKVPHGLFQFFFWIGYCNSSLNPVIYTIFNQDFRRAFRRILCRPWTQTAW
Protocol: To evaluate in radioligand binding assays the activity of compounds of the invention, human recombinant adrenergic α2B receptor expressed in Chinese hamster ovary (CHO) K1 cells (Uhlen, S. et al, Eur. J. Pharmacol. 343(1):93, 1998) in a modified Tris-HCl buffer (50 mM Tris-HCl, pH 7.4, 12.5 mM MgCl2, 1 mM EDTA, 0.2% BSA) was used. Compounds of the invention were incubated with 2.5 nM [3H]Rauwolscine for 60 min at 25° C. Non-specific binding was estimated in the presence of 10 μM Prazosin. Receptor proteins were filtered and washed, the filters were then counted to determine [3H]Rauwolscine specifically bound. […] Compounds of the invention were tested in this biochemical assay and percent inhibition of specific binding was determined. Biochemical assay results are presented as the percent inhibition of specific binding in Table B1.

[2] = target: T2, human recombinant adrenergic α2A receptor (Homo sapiens, UniProt P08913); assay: Radioligand binding, adrenergic α2A ([3H]MK-912); details: [3H]MK-912, 0.1 µM; for Percentage inhibition of ligand binding, Adrenergic α2A (0.1 μM): repeat datapoints each shown
T2 construct: expressed in transfected cells; host or cells: insect Sf9 cells
T2 sequence (P08913 1-465): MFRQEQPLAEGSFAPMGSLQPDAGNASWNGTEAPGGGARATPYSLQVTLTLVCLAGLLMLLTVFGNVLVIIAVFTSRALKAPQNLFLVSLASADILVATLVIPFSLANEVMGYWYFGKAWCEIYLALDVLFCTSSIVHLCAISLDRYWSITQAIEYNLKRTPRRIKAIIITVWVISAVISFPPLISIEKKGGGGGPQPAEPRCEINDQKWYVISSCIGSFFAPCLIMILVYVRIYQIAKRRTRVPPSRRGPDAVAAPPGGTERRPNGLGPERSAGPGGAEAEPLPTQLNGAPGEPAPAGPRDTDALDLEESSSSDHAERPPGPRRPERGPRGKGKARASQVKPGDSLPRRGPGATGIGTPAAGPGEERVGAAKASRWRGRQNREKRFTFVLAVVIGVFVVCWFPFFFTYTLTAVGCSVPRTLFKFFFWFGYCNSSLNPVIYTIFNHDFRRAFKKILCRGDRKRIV
Protocol: To evaluate in radioligand binding assays the activity of compounds of the invention, human recombinant adrenergic α2A receptor expressed in insect Sf9 cells (Uhlen, S. et al, J. Pharmacol. Exp. Ther. 271:1558, 1994) in a modified Tris-HCl buffer (50 mM Tris-HCl, pH 7.4, 12.5 mM MgCl2, 2 mM EDTA) was used. Compounds of invention were incubated with 1 nM [^3H]MK-912 for 60 min at 25° C. MK912 is (2S-trans)-1,3,4,5′,6,6′,7,12b-octahydro-1′,3′-dimethyl-spiro[2H-benzofuro[2,3-a]quinolizine-2,4′(1′H)-pyrimidin]-2′(3′H)-one hydrochloride. Non-specific binding was estimated in the presence of 10 μM WB-4101 (2-(2,6-Dimethoxyphenoxyethyl)aminomethyl-1,4-benzodioxane hydrochloride). Receptor proteins were filtered and washed, the filters were then counted to determine [^3H]MK-912 specifically bound. […] Compounds of the invention were tested in this biochemical assay and percent inhibition of specific binding was determined. Biochemical assay results are presented as the percent inhibition of specific binding in Table B1.

[3] = target: T3, rat adrenergic α1B receptor (Rattus norvegicus, UniProt P15823); assay: Radioligand binding, adrenergic α1B ([3H]Prazosin); set-up: species or system Wistar Rat; details: for Percentage inhibition of ligand binding, Adrenergic α1B (0.1 μM): repeat datapoints each shown
T3 construct: rat adrenergic α1B receptor obtained from Wistar Rat liver; from tissue; host or cells: Wistar rat liver
T3 sequence (P15823 1-515): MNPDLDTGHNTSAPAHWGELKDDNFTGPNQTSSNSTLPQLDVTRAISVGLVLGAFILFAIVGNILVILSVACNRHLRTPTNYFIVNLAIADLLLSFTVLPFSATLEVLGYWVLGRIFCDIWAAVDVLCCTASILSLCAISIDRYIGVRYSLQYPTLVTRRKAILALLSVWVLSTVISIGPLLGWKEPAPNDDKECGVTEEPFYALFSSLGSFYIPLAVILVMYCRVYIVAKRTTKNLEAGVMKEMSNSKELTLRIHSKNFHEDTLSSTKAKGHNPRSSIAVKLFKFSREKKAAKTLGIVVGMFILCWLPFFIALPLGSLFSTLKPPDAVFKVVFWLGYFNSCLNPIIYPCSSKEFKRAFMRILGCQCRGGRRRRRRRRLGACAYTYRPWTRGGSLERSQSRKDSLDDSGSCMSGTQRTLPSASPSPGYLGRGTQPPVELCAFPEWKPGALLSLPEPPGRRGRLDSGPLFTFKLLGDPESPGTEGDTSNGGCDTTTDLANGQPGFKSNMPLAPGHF
Protocol: To evaluate in radioligand binding assays the activity of compounds of the invention, rat adrenergic α1B receptor obtained from Wistar Rat liver (Garcia-S'ainz, J. et al, Biochem. Biophys. Res. Commun. 186:760, 1992; Michel, A. et al, Br. J. Pharmacol. 98:883, 1989) in a modified Tris-HCl buffer (50 mM Tris-HCl buffer, pH 7.4, 0.5 mM EDTA) was used. Compounds of the invention were incubated with 0.25 nM [^3H]Prazosin for 60 min at 25° C. Non-specific binding was estimated in the presence of 10 μM phentolamine. Receptor proteins were filtered and washed, the filters were then counted to determine [^3H]Prazosin specifically bound. […] Compounds of the invention were tested in this biochemical assay and percent inhibition of specific binding was determined. Biochemical assay results are presented as the percent inhibition of specific binding in Table B1.

Row | SMILES | Percentage inhibition of ligand binding, Adrenergic α2B (0.03 μM) ([1]; compound at 0.03 μM, 0.03 µM) | Percentage inhibition of ligand binding, Adrenergic α2A (0.1 μM) ([2]; compound at 0.1 μM) | Percentage inhibition of ligand binding, Adrenergic α1B (0.1 μM) ([3]; compound at 0.1 μM, 0.1 µM) | also measured
1 | OCCN1CCc2c(c3cc(Cl)ccc3n2CC(O)c2ccncc2)C1 (single isomer, unassigned) [II-93a] | – | – | – | Percentage inhibition of ligand binding, Adrenergic α2B ([1]; compound at 0.03 μM): 24%; Percentage inhibition of ligand binding, Adrenergic α2A ([2]; compound at 0.1 μM): 7%; Percentage inhibition of ligand binding, Adrenergic α1B ([3]; compound at 0.1 μM): 6%
2 | CN1CCc2c(c3cc(Cl)ccc3n2CC(O)c2cccnc2)C1 (single isomer, unassigned) [7a] | 59% | 1% | 28% | –
3 | Cc1ccc2c(c1)c1c(n2CC(O)c2ccncc2)CC2CCCCN2C1 (racemic) [75b] | 43% | 5% | 16% | –
4 | Cc1ccc2c(c1)c1c(n2CC(O)c2cccnc2)CCN(CCO)C1 (single isomer, unassigned) [21b] | 1% | −3% | −2% | –
5 | Cc1cnc2c(c1)c1c(n2CC(O)c2ccc(C)nc2)CCN(C)C1 (single isomer, unassigned) [II-100b] | – | – | – | Percentage inhibition of ligand binding, Adrenergic α2B ([1]; compound at 0.03 μM, 0.03 µM): 1%; Percentage inhibition of ligand binding, Adrenergic α2A ([2]; compound at 0.1 μM): 4%; Percentage inhibition of ligand binding, Adrenergic α1B ([3]; compound at 0.1 μM): 24%
6 | Cc1ccc2c(c1)c1c(n2CC(C)(O)c2ccc[n+]([O-])c2)CCN(C)C1 (single isomer, unassigned) [56a] | 20% | 11% | 1% | –
7 | CCC1c2c(c3cc(C)ccc3n2CC(O)c2ccncc2)C2CCN1C2 (single isomer, unassigned) [36b] | −1% | 0% | 11% | –
8 | CN1CCc2c(n(CC(C)(O)c3cccnc3)c3ccc(Cl)cc23)C1 (single isomer, unassigned) [28a] | 96% | 28% | 41% | –
9 | CN1CCc2c(c3cc(Cl)ccc3n2CC(O)c2cccnc2)C1 (single isomer, unassigned) [7b] | 74% | 25% | 37% | –
10 | Cc1cnc2c(c1)c1c(n2CC(C)(O)c2ccc(C)nc2)CCN2CCCC12 (single isomer, unassigned) [148c] | – | – | – | Percentage inhibition of ligand binding, Adrenergic α2B ([1]; 0.03 μM compound, 0.03 µM): 16%; Percentage inhibition of ligand binding, Adrenergic α2A ([2]; 0.1 μM compound): −1%; Percentage inhibition of ligand binding, Adrenergic α1B ([3]; 0.1 μM compound, 0.1 µM): 6%

— patent US9550782B2, “Compounds and methods for treating diabetes” (Medivation Technologies, Inc., priority 2011, dated 2017)
